Common to all, as to test: relative viability (nuclei count vs DMSO), 5 days (fraction); higher = more cells survive
Compound in the test “R406 + Dasatinib”: COc1cc(Nc2ncc(F)c(Nc3ccc4c(n3)NC(=O)C(C)(C)O4)n2)cc(OC)c1OC [R406] + Cc1nc(Nc2ncc(C(=O)Nc3c(C)cccc3Cl)s2)cc(N2CCN(CCO)CC2)n1 [Dasatinib] (partner 0.075 µM)
In a few lines:
(§1)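 Relative viability divides the nuclei count in treated wells by that in vehicle wells. Lung cancer cell lines were seeded in 1536-well plates, dosed by pin tool the next day, and fixed and stained after 5 days in one step with final 0.05% Triton X-100, 1% formaldehyde and 1 ug/ml Hoechst. Dosing was a single drug or a fixed anchor-drug dose plus five library-drug doses (not always all listed) in √10 steps, and values are medians of duplicate plates imaged at 4×.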

Compound in the test “Daporinad + Bortezomib”: O=C(/C=C/c1cccnc1)NCCCCC1CCN(C(=O)c2ccccc2)CC1 [Daporinad] + CC(C)C[C@H](NC(=O)[C@H](Cc1ccccc1)NC(=O)c1cnccn1)B(O)O [Bortezomib] (partner 0.002 µM)
A digest of the protocol: as §1

Compound in the test “Daporinad + Tozasertib”: O=C(/C=C/c1cccnc1)NCCCCC1CCN(C(=O)c2ccccc2)CC1 [Daporinad] + Cc1cc(Nc2cc(N3CCN(C)CC3)nc(Sc3ccc(NC(=O)C4CC4)cc3)n2)n[nH]1 [Tozasertib] (partner 0.1 µM)
In a few lines:
as §1

Compound in the test “Daporinad + Pemetrexed”: O=C(/C=C/c1cccnc1)NCCCCC1CCN(C(=O)c2ccccc2)CC1 [Daporinad] + Nc1nc2[nH]cc(CCc3ccc(C(=O)N[C@@H](CCC(=O)O)C(=O)O)cc3)c2c(=O)[nH]1 [Pemetrexed] (partner 0.2 µM)
In a few lines:
as §1

On to NCI-H1975, for which the relative viability with R406 + Dasatinib (first compound 0.08 µM) came to 0.377; in the test with R406 + Dasatinib (first compound 0.253 µM), 0.479; with R406 + Dasatinib (first compound 0.8 µM) it was 0.379; with R406 + Dasatinib (first compound 2.53 µM) it was 0.174; in the test with R406 + Dasatinib (first compound 8 µM) it was 0.112; with Daporinad + Bortezomib (first compound 0.0005 µM) it was 0.397. The relative viability with Daporinad + Bortezomib (first compound 0.001581 µM) stood at 0.395; in the test with Daporinad + Bortezomib (first compound 0.005 µM), 0.332; in the test with Daporinad + Bortezomib (first compound 0.01581 µM) it was 0.402; with Daporinad + Tozasertib (first compound 0.0005 µM) it was 0.789; in the test with Daporinad + Tozasertib (first compound 0.001581 µM), 0.742; with Daporinad + Tozasertib (first compound 0.005 µM), 0.661. In addition, the relative viability in the test with Daporinad + Tozasertib (first compound 0.01581 µM) came out at 0.692; in the test with Daporinad + Pemetrexed (first compound 0.0005 µM), 0.3; with Daporinad + Pemetrexed (first compound 0.001581 µM), 0.313; with Daporinad + Pemetrexed (first compound 0.005 µM) it was 0.31; with Daporinad + Pemetrexed (first compound 0.01581 µM), 0.256.
Take NCI-H1993: the relative viability with R406 + Dasatinib (first compound 0.08 µM) came out at 0.564; with R406 + Dasatinib (first compound 0.253 µM), 0.631; in the test with R406 + Dasatinib (first compound 0.8 µM), 0.704; with R406 + Dasatinib (first compound 2.53 µM), 0.316; in the test with R406 + Dasatinib (first compound 8 µM) it was 0.453; with Daporinad + Bortezomib (first compound 0.0005 µM) it was 0.919. For the same cell line, the relative viability in the test with Daporinad + Bortezomib (first compound 0.001581 µM) amounted to 1.21; with Daporinad + Bortezomib (first compound 0.005 µM), 1.09; in the test with Daporinad + Bortezomib (first compound 0.01581 µM) it was 1.12; in the test with Daporinad + Tozasertib (first compound 0.0005 µM), 0.62; in the test with Daporinad + Tozasertib (first compound 0.001581 µM), 0.576; with Daporinad + Tozasertib (first compound 0.005 µM), 0.633. Also, the relative viability with Daporinad + Tozasertib (first compound 0.01581 µM) was found to be 0.656; with Daporinad + Pemetrexed (first compound 0.0005 µM), 0.54; with Daporinad + Pemetrexed (first compound 0.001581 µM), 0.561; with Daporinad + Pemetrexed (first compound 0.005 µM), 0.644; with Daporinad + Pemetrexed (first compound 0.01581 µM), 0.567.
For the cell line NCI-H2009, the relative viability with R406 + Dasatinib (first compound 0.08 µM) was 0.25; with R406 + Dasatinib (first compound 0.253 µM), 0.302; with R406 + Dasatinib (first compound 0.8 µM), 0.328; with R406 + Dasatinib (first compound 2.53 µM), 0.182; with R406 + Dasatinib (first compound 8 µM) it was 0.13; with Daporinad + Bortezomib (first compound 0.0005 µM), 0.887. The relative viability came out at 1.09 in the test with Daporinad + Bortezomib (first compound 0.001581 µM); 1.06 with Daporinad + Bortezomib (first compound 0.005 µM); 0.846 in the test with Daporinad + Bortezomib (first compound 0.01581 µM); 0.76 with Daporinad + Tozasertib (first compound 0.0005 µM); 0.706 with Daporinad + Tozasertib (first compound 0.001581 µM); 0.724 in the test with Daporinad + Tozasertib (first compound 0.005 µM). For the same cell line, the relative viability turned out to be 0.555 in the test with Daporinad + Tozasertib (first compound 0.01581 µM); 1.04 with Daporinad + Pemetrexed (first compound 0.0005 µM); 1.01 with Daporinad + Pemetrexed (first compound 0.001581 µM); 0.872 with Daporinad + Pemetrexed (first compound 0.005 µM); 0.545 with Daporinad + Pemetrexed (first compound 0.01581 µM).
With NCI-H2023, the relative viability is 0.519 with R406 + Dasatinib (first compound 0.08 µM); 0.642 in the test with R406 + Dasatinib (first compound 0.253 µM); 0.699 with R406 + Dasatinib (first compound 0.8 µM); 0.357 with R406 + Dasatinib (first compound 2.53 µM); 0.0963 with R406 + Dasatinib (first compound 8 µM); 1.01 in the test with Daporinad + Bortezomib (first compound 0.0005 µM). The relative viability with Daporinad + Bortezomib (first compound 0.001581 µM) was 1.1; with Daporinad + Bortezomib (first compound 0.005 µM), 1.04; with Daporinad + Bortezomib (first compound 0.01581 µM), 0.972; with Daporinad + Tozasertib (first compound 0.0005 µM), 0.438; with Daporinad + Tozasertib (first compound 0.001581 µM) it was 0.334; with Daporinad + Tozasertib (first compound 0.005 µM), 0.503. In addition, the relative viability with Daporinad + Tozasertib (first compound 0.01581 µM) stood at 0.371; in the test with Daporinad + Pemetrexed (first compound 0.0005 µM), 0.224; in the test with Daporinad + Pemetrexed (first compound 0.001581 µM), 0.231; with Daporinad + Pemetrexed (first compound 0.005 µM), 0.267; in the test with Daporinad + Pemetrexed (first compound 0.01581 µM), 0.202.
As to NCI-H2085, the relative viability worked out at 0.249 with R406 + Dasatinib (first compound 0.08 µM); 0.283 in the test with R406 + Dasatinib (first compound 0.253 µM); 0.251 with R406 + Dasatinib (first compound 0.8 µM); 0.222 with R406 + Dasatinib (first compound 2.53 µM); 0.179 in the test with R406 + Dasatinib (first compound 8 µM); 1 in the test with Daporinad + Bortezomib (first compound 0.0005 µM). Also, the relative viability in the test with Daporinad + Bortezomib (first compound 0.001581 µM) was found to be 1.12; with Daporinad + Bortezomib (first compound 0.005 µM) it was 1.08; with Daporinad + Bortezomib (first compound 0.01581 µM) it was 1.17; with Daporinad + Tozasertib (first compound 0.0005 µM) it was 0.805; in the test with Daporinad + Tozasertib (first compound 0.001581 µM), 0.846; in the test with Daporinad + Tozasertib (first compound 0.005 µM), 0.977. Further, the relative viability in the test with Daporinad + Tozasertib (first compound 0.01581 µM) is 0.831; with Daporinad + Pemetrexed (first compound 0.0005 µM), 0.843; with Daporinad + Pemetrexed (first compound 0.005 µM), 0.994; with Daporinad + Pemetrexed (first compound 0.01581 µM) it was 1.04.
NCI-H2087: the relative viability came out at 0.782 in the test with R406 + Dasatinib (first compound 0.08 µM); 0.903 with R406 + Dasatinib (first compound 0.253 µM); 1.15 with R406 + Dasatinib (first compound 0.8 µM); 0.481 with R406 + Dasatinib (first compound 8 µM); 0.676 in the test with Daporinad + Bortezomib (first compound 0.0005 µM); 0.644 with Daporinad + Bortezomib (first compound 0.001581 µM). The relative viability was 0.868 in the test with Daporinad + Bortezomib (first compound 0.005 µM); 0.662 with Daporinad + Bortezomib (first compound 0.01581 µM); 0.262 in the test with Daporinad + Tozasertib (first compound 0.0005 µM); 0.229 with Daporinad + Tozasertib (first compound 0.001581 µM); 0.339 in the test with Daporinad + Tozasertib (first compound 0.005 µM); 0.221 with Daporinad + Tozasertib (first compound 0.01581 µM). Moreover, the relative viability is 0.675 in the test with Daporinad + Pemetrexed (first compound 0.0005 µM), 0.739 with Daporinad + Pemetrexed (first compound 0.001581 µM), 0.711 with Daporinad + Pemetrexed (first compound 0.005 µM) and 0.764 with Daporinad + Pemetrexed (first compound 0.01581 µM).
Regarding NCI-H2126, the relative viability in the test with R406 + Dasatinib (first compound 0.08 µM) is 0.6; with R406 + Dasatinib (first compound 0.253 µM) it was 0.619; in the test with R406 + Dasatinib (first compound 0.8 µM), 0.596; in the test with R406 + Dasatinib (first compound 2.53 µM), 0.496; with R406 + Dasatinib (first compound 8 µM) it was 0.243; in the test with Daporinad + Bortezomib (first compound 0.0005 µM), 1.07. For the same cell line, the relative viability with Daporinad + Bortezomib (first compound 0.001581 µM) was found to be 1.14; in the test with Daporinad + Bortezomib (first compound 0.005 µM), 1.13; with Daporinad + Bortezomib (first compound 0.01581 µM), 1.15; in the test with Daporinad + Tozasertib (first compound 0.0005 µM) it was 0.919; with Daporinad + Tozasertib (first compound 0.001581 µM), 0.888; with Daporinad + Tozasertib (first compound 0.005 µM) it was 0.875. In addition, the relative viability was found to be 0.93 in the test with Daporinad + Tozasertib (first compound 0.01581 µM); 0.644 with Daporinad + Pemetrexed (first compound 0.0005 µM); 0.68 with Daporinad + Pemetrexed (first compound 0.001581 µM); 0.694 with Daporinad + Pemetrexed (first compound 0.005 µM); 0.7 with Daporinad + Pemetrexed (first compound 0.01581 µM).
NCI-H2228: the relative viability was 0.442 in the test with R406 + Dasatinib (first compound 0.08 µM); 0.695 in the test with R406 + Dasatinib (first compound 0.253 µM); 0.646 with R406 + Dasatinib (first compound 0.8 µM); 0.195 with R406 + Dasatinib (first compound 2.53 µM); 0.135 in the test with R406 + Dasatinib (first compound 8 µM); 0.788 with Daporinad + Bortezomib (first compound 0.0005 µM). Moreover, the relative viability amounted to 1.2 in the test with Daporinad + Bortezomib (first compound 0.001581 µM); 1.12 with Daporinad + Bortezomib (first compound 0.005 µM); 1.11 with Daporinad + Bortezomib (first compound 0.01581 µM); 0.264 with Daporinad + Tozasertib (first compound 0.0005 µM); 0.201 with Daporinad + Tozasertib (first compound 0.001581 µM); 0.322 with Daporinad + Tozasertib (first compound 0.005 µM). For the same cell line, the relative viability with Daporinad + Tozasertib (first compound 0.01581 µM) stood at 0.294; in the test with Daporinad + Pemetrexed (first compound 0.0005 µM), 0.342; in the test with Daporinad + Pemetrexed (first compound 0.001581 µM), 0.307; in the test with Daporinad + Pemetrexed (first compound 0.005 µM), 0.304; with Daporinad + Pemetrexed (first compound 0.01581 µM), 0.406.
